Reference: publication PMC5439667, “Thermal stability and kinetic constants for 129 variants of a family 1 glycoside hydrolase reveal that enzyme activity and stability can be separately designed” (PLoS ONE, 2017)

Target: BglB (Paenibacillus polymyxa, UniProt P22505)
Assay: Michaelis-Menten kinetics of […]-nitrophenol release (as in the previous study)
Assay type: biochemical
Conditions: wild type, batched replicates re-measured here; conditions of the kinetic assay not printed in the main text

Chain of BglB (P22505 whole entry): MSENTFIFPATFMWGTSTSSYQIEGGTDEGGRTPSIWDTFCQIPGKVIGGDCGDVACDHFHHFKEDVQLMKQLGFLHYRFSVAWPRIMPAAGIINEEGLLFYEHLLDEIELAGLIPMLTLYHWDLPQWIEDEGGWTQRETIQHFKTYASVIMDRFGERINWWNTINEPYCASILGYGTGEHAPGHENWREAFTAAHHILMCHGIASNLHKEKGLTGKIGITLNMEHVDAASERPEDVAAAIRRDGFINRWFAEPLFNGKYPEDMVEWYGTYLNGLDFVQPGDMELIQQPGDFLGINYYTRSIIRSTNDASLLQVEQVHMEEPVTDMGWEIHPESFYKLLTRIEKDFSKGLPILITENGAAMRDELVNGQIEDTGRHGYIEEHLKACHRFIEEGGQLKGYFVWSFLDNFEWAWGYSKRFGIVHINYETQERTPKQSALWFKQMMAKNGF

For `O=[N+]([O-])c1ccc(O[C@@H]2O[C@H](CO)[C@@H](O)[C@H](O)[C@H]2O)cc1` [pNPG], the KM was “batched replicates of the native BglB sequence”.
